Assay results published in patent publication US6358885B1, “Substituted phenylheterocyclic herbicides” (Mississippi State University, priority 1992, dated 2002).

Experiments:
barnyardgrass [1] = test: Test B preemergence/postemergence greenhouse plant response rating 0 to 10; assay type: in vivo, Echinochloa crus-galli; details: for Plant response rating, Barnyardgrass: 0 to 10 scale
Method in brief: (§1)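 Postemergence treatment of plants two to eighteen cm tall ran alongside preemergence treatment of planted seed, each using compound in a non-phytotoxic solvent.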

cocklebur = test: as above; assay type: in vivo, Xanthium pensylvanicum; details: for Plant response rating, Cocklebur: 0 to 10 scale
Method in brief: as §1

crabgrass = test: as above; assay type: in vivo, Digitaria spp.; details: for Plant response rating, Crabgrass: 0 to 10 scale
Method in brief: as §1

giant foxtail [2] = test: as above; assay type: in vivo, Setaria faberii; details: 0 to 10 scale
Method in brief: as §1

lambsquarters = test: as above; assay type: in vivo, Chenopodium album; details: 0 to 10 scale
Method in brief: as §1

wild buckwheat = test: as above; assay type: in vivo, Polygonum convolvulus; details: 0 to 10 scale
Method in brief: as §1

wild oat [3] = test: as above; assay type: in vivo, Avena fatua; details: POSTEMERGENCE, 0 to 10 scale
Method in brief: as §1

purple nutsedge = test: as above; assay type: in vivo, Cyperus rotundus; details: 0 to 10 scale
Method in brief: as §1

chickweed = test: Test C preemergence/postemergence greenhouse plant response rating 0 to 100; assay type: in vivo, Stellaria media; details: POSTEMERGENCE
Method in brief: (§2)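 Compounds in non-phytotoxic solvent applied preemergence to sandy loam one day after planting, postemergence at the 1–4 leaf stage, or to ~2.5 cm floodwater over silt loam.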

cotton = test: as above; assay type: in vivo, Gossypium hirsutum; details: POSTEMERGENCE
Method in brief: as §2

downy brome = test: as above; assay type: in vivo, Bromus tectorum; details: POSTEMERGENCE
Method in brief: as §2

giant foxtail [4] = test: as above; assay type: in vivo, Setaria faberii; details: POSTEMERGENCE
Method in brief: as §2

rape = test: as above; assay type: in vivo, Brassica napus; details: POSTEMERGENCE
Method in brief: as §2

soybean = test: as above; assay type: in vivo, Glycine max; details: POSTEMERGENCE
Method in brief: as §2

wild oat [5] = test: as above; assay type: in vivo, Avena fatua; details: POSTEMERGENCE
Method in brief: as §2

rice = test: Test C flood test plant response rating 0 to 100; assay type: in vivo, Oryza sativa
Method in brief: as §2

umbrella sedge = test: Test C flood test plant response rating 0 to 100; assay type: in vivo, Cyperus difformis
Method in brief: as §2

barnyardgrass [6] = test: Test C flood test plant response rating 0 to 100; assay type: in vivo, Echinochloa crus-galli
Method in brief: as §2

[7] = POSTEMERGENCE section, flood test, Rate 1 g/ha
[8] = POSTEMERGENCE section, flood test, Rate 4 g/ha
[9] = Rate 16 g/ha, under POSTEMERGENCE head (flood test species)
[10] = flood test species listed under POSTEMERGENCE, 62 g/ha, 0 to 100 scale

Q: How did the “Plant response rating, Barnyardgrass” value (barnyardgrass [1]; POSTEMERGENCE, Rate 10 g/ha) turn out when `CCCN1C(=O)COc2cc(F)c(-c3nn4c(c3Cl)CCCC4)cc21` [Compound 32] was run?
A: 3

Q: What about the “Plant response rating (0 to 10 scale), Barnyardgrass” value (barnyardgrass [1]; POSTEMERGENCE, Rate 50 g/ha) of the same compound?
A: 5

Q: And the “Plant response rating, Barnyardgrass” value (barnyardgrass [1]; PREEMERGENCE, Rate 10 g/ha)?
A: 0

Q: What about the “Plant response rating, Barnyardgrass” value (barnyardgrass [1]; PREEMERGENCE, Rate 50 g/ha) of the same compound?
A: 1

Q: What about the “Plant response rating, Cocklebur” value (cocklebur; POSTEMERGENCE, Rate 10 g/ha) of the same compound?
A: 9

Q: What about the “Plant response rating (0 to 10 scale), Cocklebur” value (cocklebur; POSTEMERGENCE, Rate 50 g/ha) of the same compound?
A: 10

Q: What about the “Plant response rating, Cocklebur” value (cocklebur; PREEMERGENCE, Rate 10 g/ha) of the same compound?
A: 0

Q: And the “Plant response rating, Cocklebur” value (cocklebur; PREEMERGENCE, Rate 50 g/ha)?
A: 5

Q: What about the “Plant response rating, Crabgrass” value (crabgrass; POSTEMERGENCE, Rate 10 g/ha) of the same compound?
A: 3

Q: What about the “Plant response rating (0 to 10 scale), Crabgrass” value (crabgrass; POSTEMERGENCE, Rate 50 g/ha) of the same compound?
A: 5

Q: And the “Plant response rating, Crabgrass” value (crabgrass; PREEMERGENCE, Rate 10 g/ha)?
A: 2

Q: And the “Plant response rating, Crabgrass” value (crabgrass; PREEMERGENCE, Rate 50 g/ha)?
A: 3

Q: And the “Plant response rating, Giant foxtail” value (giant foxtail [2]; POSTEMERGENCE, Rate 10 g/ha)?
A: 4

Q: What about the “Plant response rating, Giant foxtail” value (giant foxtail [2]; POSTEMERGENCE, Rate 50 g/ha) of the same compound?
A: 5

Q: And the “Plant response rating, Giant foxtail” value (giant foxtail [2]; PREEMERGENCE, Rate 10 g/ha)?
A: 2

Q: What about the “Plant response rating, Giant foxtail” value (giant foxtail [2]; PREEMERGENCE, Rate 50 g/ha) of the same compound?
A: 4

Q: And the “Plant response rating, Lambsquarter” value (lambsquarters; POSTEMERGENCE, Rate 10 g/ha)?
A: 10

Q: And the “Plant response rating, Lambsquarter” value (lambsquarters; POSTEMERGENCE, Rate 50 g/ha)?
A: 10

Q: What about the “Plant response rating, Lambsquarter” value (lambsquarters; PREEMERGENCE, Rate 50 g/ha) of the same compound?
A: 10

Q: And the “Plant response rating, Wild buckwheat” value (wild buckwheat; POSTEMERGENCE, Rate 10 g/ha)?
A: 9

Q: What about the “Plant response rating, Wild buckwheat” value (wild buckwheat; POSTEMERGENCE, Rate 50 g/ha) of the same compound?
A: 10

Q: What about the “Plant response rating, Wild buckwheat” value (wild buckwheat; PREEMERGENCE, Rate 50 g/ha) of the same compound?
A: 8

Q: And the “Plant response rating, Wild oat” value (wild oat [3]; Rate 10 g/ha)?
A: 4

Q: What about the “Plant response rating, Wild oat” value (wild oat [3]; Rate 50 g/ha) of the same compound?
A: 4

Q: What about the “Plant response rating, Nutsedge” value (purple nutsedge; POSTEMERGENCE, Rate 10 g/ha) of the same compound?
A: 2

Q: And the “Plant response rating, Nutsedge” value (purple nutsedge; POSTEMERGENCE, Rate 50 g/ha)?
A: 4

Q: What about the “Plant response rating, Nutsedge” value (purple nutsedge; PREEMERGENCE, Rate 50 g/ha) of the same compound?
A: 0

Q: And the “Plant response rating, Chickweed” value (chickweed; 62 g/ha, 0 to 100 scale)?
A: 100

Q: What about the “Plant response rating (0 to 100), Chickweed” value (chickweed; Rate 1 g/ha) of the same compound?
A: 30

Q: What about the “Plant response rating (0 to 100), Chickweed” value (chickweed; Rate 4 g/ha) of the same compound?
A: 60

Q: What about the “Plant response rating (0 to 100), Chickweed” value (chickweed; Rate 16 g/ha) of the same compound?
A: 90

Q: And the “Plant response rating, Cotton” value (cotton; 62 g/ha, 0 to 100 scale)?
A: 100

Q: And the “Plant response rating (0 to 100), Cotton” value (cotton; Rate 1 g/ha)?
A: 95

Q: What about the “Plant response rating (0 to 100), Cotton” value (cotton; Rate 4 g/ha) of the same compound?
A: 100

Q: And the “Plant response rating (0 to 100), Cotton” value (cotton; Rate 16 g/ha)?
A: 100

Q: What about the “Plant response rating Downy Brome” value (downy brome; 62 g/ha, 0 to 100 scale) of the same compound?
A: 50

Q: And the “Plant response rating (0 to 100), Downy Brome” value (downy brome; Rate 1 g/ha)?
A: 20

Q: And the “Plant response rating (0 to 100), Downy Brome” value (downy brome; Rate 4 g/ha)?
A: 30

Q: What about the “Plant response rating (0 to 100), Downy Brome” value (downy brome; Rate 16 g/ha) of the same compound?
A: 40

Q: And the “Plant response rating, Giant foxtail” value (giant foxtail [4]; 62 g/ha, 0 to 100 scale)?
A: 70

Q: What about the “Plant response rating (0 to 100), Giant foxtail” value (giant foxtail [4]; Rate 1 g/ha) of the same compound?
A: 20

Q: What about the “Plant response rating (0 to 100), Giant foxtail” value (giant foxtail [4]; Rate 4 g/ha) of the same compound?
A: 30

Q: And the “Plant response rating (0 to 100), Giant foxtail” value (giant foxtail [4]; Rate 16 g/ha)?
A: 50

Q: And the “Plant response rating, Rape” value (rape; 62 g/ha, 0 to 100 scale)?
A: 100

Q: What about the “Plant response rating (0 to 100), Rape” value (rape; Rate 1 g/ha) of the same compound?
A: 60

Q: And the “Plant response rating (0 to 100), Rape” value (rape; Rate 4 g/ha)?
A: 85

Q: What about the “Plant response rating (0 to 100), Rape” value (rape; Rate 16 g/ha) of the same compound?
A: 95

Q: And the “Plant response rating, Soybean” value (soybean; 62 g/ha, 0 to 100 scale)?
A: 90

Q: What about the “Plant response rating (0 to 100), Soybean” value (soybean; Rate 1 g/ha) of the same compound?
A: 20

Q: And the “Plant response rating (0 to 100), Soybean” value (soybean; Rate 4 g/ha)?
A: 50

Q: What about the “Plant response rating (0 to 100), Soybean” value (soybean; Rate 16 g/ha) of the same compound?
A: 70

Q: What about the “Plant response rating, Wild oat” value (wild oat [5]; 62 g/ha, 0 to 100 scale) of the same compound?
A: 50

Q: What about the “Plant response rating (0 to 100), Wild oat” value (wild oat [5]; Rate 1 g/ha) of the same compound?
A: 20

Q: And the “Plant response rating (0 to 100), Wild oat” value (wild oat [5]; Rate 4 g/ha)?
A: 30

Q: And the “Plant response rating (0 to 100), Wild oat” value (wild oat [5]; Rate 16 g/ha)?
A: 30

Q: What about the “Plant response rating (0 to 100), Rice Japonica” value (rice; [7]) of the same compound?
A: 0

Q: What about the “Plant response rating (0 to 100), Rice Japonica” value (rice; [8]) of the same compound?
A: 20

Q: And the “Plant response rating (0 to 100), Rice Japonica” value (rice; [9])?
A: 30

Q: And the “Plant response rating Rice Japonica” value (rice; [10])?
A: 75

Q: What about the “Plant response rating (0 to 100), Umbrella sedge” value (umbrella sedge; [7]) of the same compound?
A: 0

Q: What about the “Plant response rating (0 to 100), Umbrella sedge” value (umbrella sedge; [8]) of the same compound?
A: 0

Q: And the “Plant response rating (0 to 100), Umbrella sedge” value (umbrella sedge; [9])?
A: 20

Q: And the “Plant response rating Umbrella sedge” value (umbrella sedge; [10])?
A: 60

Q: And the “Plant response rating (0 to 100), Barnyardgrass” value (barnyardgrass [6]; [7])?
A: 30

Q: What about the “Plant response rating (0 to 100), Barnyardgrass” value (barnyardgrass [6]; Rate 4 g/ha, under POSTEMERGENCE head (flood test species)) of the same compound?
A: 55

Q: And the “Plant response rating (0 to 100), Barnyardgrass” value (barnyardgrass [6]; [9])?
A: 100

Q: And the “Plant response rating, Barnyardgrass” value (barnyardgrass [6]; [10])?
A: 100
